Laboratory results from patent US9676793B2, “Co-crystals of 5-amino-2-oxothiazolo[4,5-d]pyrimidin-3(2H)-yl-5-hydroxymethyl tetrahydrofuran-3-yl acetate and methods for preparing and using the same” (Hoffmann-La Roche Inc., priority 2014, dated 2017).
Like-named read-outs stand apart in the source and are kept apart here.

Key:
[1] = Cell viability by CellTiter-Glo, direct treatment; format: cell-based; details: human; for cytotoxicity at 7 days, 0.82 μM / cytotoxicity at 7 days, 2.47 μM / cytotoxicity at 7 days, 7.41 μM / cytotoxicity at 7 days, 22.22 μM / cytotoxicity at 7 days, 66.67 μM / cytotoxicity at 7 days, 200 μM: read-out: Cell viability (% inhibition)
[2] = tested on: HBV infected HepaRGd cells; assay: Cell viability by CellTiter-Glo, direct treatment; format: cell-based; details: for CC50: read-out: EC/CC50 (μM), Cell viability
HBV = assay: Indirect inhibition of HBV replication by conditioned media from stimulated PBMCs; format: cell-based, HBV (genotype D, strain ayw)
Description: (§1) TLR-7 agonists stimulate the production cytokines and chemokines from human PBMC's. Conditioned medium was obtained by contacting cultured PBMC's with DMSO (control) or 100 μM R06871765 (drug) was contacted with HBV infected HepaRGd cells.
HBV infected HepaRGd cells were incubated with various dilutions of conditioned media collected from PBMCs isolated from healthy donors—donor 70615 (graphs A-D) and donor 77726 (graphs E, F). The PBMC's from each donor were stimulated with either DMSO (graphs A, C, E) or 100 μM R06871765 (graphs B, D, F). […] Three experiments were performed. In the first experiment (FIGS. 4A, 4B), conditioned media from PBMCs (donor 70615) was first diluted 10-fold using differentiation media, and then serially diluted in 3-fold increments prior to addition of each of the diluted conditioned medium to HBV infected HepaRGd cells. In the second experiment (FIGS. 4C, 4D), conditioned media from PBMCs (donor 70615) was first diluted 5-fold using differentiation media, and then serially diluted in 5-fold increments prior to addition to HBV infected HepaRGd cells. In the third experiment (FIGS. 4E, 4F), conditioned media from PBMCs (donor 77726) was first diluted 5-fold using differentiation media, and then serially diluted in 5-fold increments prior to addition to HBV infected HepaRGd cells. The HBV replication inhibitory activity for control and R06871765 treated cells was determined by monitoring the levels of HBV DNA and HBsAg secreted in culture medium.

human PBMCs = assay: Cytokine profiling of conditioned media from stimulated PBMCs; format: cell-based; details: no release with DMSO
Description: as §1
The anti-viral effect of conditioned medium obtained cultured PBMC's treated with R06871765 most likely is due to the release of cytokines and chemokines from PBMC's.

[3] = conditioned media of PBMCs stimulated with 100 μM
[4] = conditioned media of PBMCs stimulated with 100 μM, Feb. 28, 2013 donor 77726
[5] = conditioned media of PBMCs stimulated with 100 μM, Jan. 3, 2013 donor 70615
[6] = conditioned media of PBMCs stimulated with 100 μM, Nov. 12, 2012 donor 70615
[7] = stimulated PBMC conditioned media

Work on Nc1nc2c(sc(=O)n2[C@@H]2O[C@H](CO)C[C@H]2O)c(=O)[nH]1 [R06871765] yielded a cytotoxicity at 7 days, 0.82 μM ([1]; EXP ID 10/15/2012 AL) of -2.58%, a cytotoxicity at 7 days, 0.82 μM ([1]; EXP ID 10/15/2012 VL) of 3.23% and a cytotoxicity at 7 days, 2.47 μM ([1]; EXP ID 10/15/2012 AL) of -2.57%. For the same compound, the cytotoxicity at 7 days, 2.47 μM ([1]; EXP ID 10/15/2012 VL) was 0.54%, the cytotoxicity at 7 days, 7.41 μM ([1]; EXP ID 10/15/2012 AL) was -2.85% and the cytotoxicity at 7 days, 7.41 μM ([1]; EXP ID 10/15/2012 VL) was -1.5%. The cytotoxicity at 7 days, 22.22 μM ([1]; EXP ID 10/15/2012 AL) was -2.43%, the cytotoxicity at 7 days, 22.22 μM ([1]; EXP ID 10/15/2012 VL) was -1.37% and the cytotoxicity at 7 days, 66.67 μM ([1]; EXP ID 10/15/2012 AL) was 3.7%. For the same compound, the cytotoxicity at 7 days, 66.67 μM ([1]; EXP ID 10/15/2012 VL) was 7.34%, the cytotoxicity at 7 days, 200 μM ([1]; EXP ID 10/15/2012 AL) was 12.3% and the cytotoxicity at 7 days, 200 μM ([1]; EXP ID 10/15/2012 VL) was 22%. The CC50 at 7 days ([1]; HBV infected HepaRGd cells) was > 200 µM, the CC50 ([2]; EXP ID 10/15/2012 AL) was > 200 µM and the CC50 ([2]; EXP ID 10/15/2012 VL) was > 200 µM. The “maximum reduction in viability” value ([2]; highest concentration (200 μM)) was “about 17%”, the “EC50 converted fold dilution, HBV DNA secretion” value (HBV; [3]) was 318 fold dilution and the “EC50 converted fold dilution, HBsAg secretion” value (HBV; [3]) was 16 fold dilution. The “EC50 [log dilution], HBV DNA secretion” value (HBV; [4]) was −2.1 log dilution, the “EC50 [log dilution], HBsAg secretion” value (HBV; [4]) was −1.0 log dilution and the “EC50 [log dilution], HBV DNA secretion” value (HBV; [5]) was −2.9 log dilution. The “EC50 [log dilution], HBsAg secretion” value (HBV; [5]) was −1.4 log dilution, the “EC50 [log dilution], HBV DNA secretion” value (HBV; [6]) was −2.5 log dilution and the “EC50 [log dilution], HBsAg secretion” value (HBV; [6]) was <−1.0 log dilution. The “EC50 [log dilution], HBsAg secretion, Ave ± SD” value (HBV; conditioned media of PBMCs stimulated with 100 μM, average) was −1.2 log dilution, the “EC50 [log dilution], HBV DNA secretion, Ave ± SD” value (HBV; conditioned media of PBMCs stimulated with 100 μM, average of three experiments) was −2.5 ± 0.4 log dilution and the “average EC50 against HBV DNA” value (HBV; [7]) was −2.5±0.4 log10. The “average EC50 against HBV surface antigen (HBsAg) secretion” value (HBV; [7]) was −1.2 log10 and the “release of IFN-α, IL-6, TNF-α and IP-10 from PBMCs” value (human PBMCs) was “induced release”.
